Data from ChEMBL document CHEMBL5465560, “Selectivity Literature for EUbOPEN Chemogenomic Library” (2024).

Columns and labels:
[1] = target: Tyrosine-protein kinase JAK2 (Homo sapiens, UniProt O60674); assay: Selectivity interaction (KinomeScan (DiscoverX)) EUB0000595a JAK2; conditions: at 10 µM
[2] = target: MAP/microtubule affinity-regulating kinase 3 (Homo sapiens) (UniProt P27448); assay: Selectivity interaction (Kinase panel (Z-LYTE Assay)) EUB0001632a MARK3; conditions: at 10 µM
[3] = target: Transcription intermediary factor 1-beta (Homo sapiens) (UniProt Q13263); assay: Selectivity interaction (Bromodomain panel (DSF asssay)) EUB0000270b TRIM28
[4] = tested on: Proto-oncogene tyrosine-protein kinase receptor Ret (Homo sapiens), P07949 [M918T]; conditions: at 10 µM
[5] = target: Tyrosine-protein kinase CSK (Homo sapiens) (UniProt P41240); assay: Selectivity interaction (KinomeScan (DiscoverX)) EUB0001049a CSK; conditions: at 1 µM
[6] = target: Serine/threonine-protein kinase 25 (Homo sapiens) (UniProt O00506); assay: Selectivity interaction (KinomeScan (DiscoverX)) EUB0001049a STK25; conditions: at 1 µM
[7] = target: T1, Mitogen-activated protein kinase kinase kinase 5 (Homo sapiens) (UniProt Q99683); assay: Selectivity interaction (Upstate Kinase Profiler service (Millipore)) EUB0000056c MAP3K5; conditions: at 1 µM
T1 sequence (whole entry): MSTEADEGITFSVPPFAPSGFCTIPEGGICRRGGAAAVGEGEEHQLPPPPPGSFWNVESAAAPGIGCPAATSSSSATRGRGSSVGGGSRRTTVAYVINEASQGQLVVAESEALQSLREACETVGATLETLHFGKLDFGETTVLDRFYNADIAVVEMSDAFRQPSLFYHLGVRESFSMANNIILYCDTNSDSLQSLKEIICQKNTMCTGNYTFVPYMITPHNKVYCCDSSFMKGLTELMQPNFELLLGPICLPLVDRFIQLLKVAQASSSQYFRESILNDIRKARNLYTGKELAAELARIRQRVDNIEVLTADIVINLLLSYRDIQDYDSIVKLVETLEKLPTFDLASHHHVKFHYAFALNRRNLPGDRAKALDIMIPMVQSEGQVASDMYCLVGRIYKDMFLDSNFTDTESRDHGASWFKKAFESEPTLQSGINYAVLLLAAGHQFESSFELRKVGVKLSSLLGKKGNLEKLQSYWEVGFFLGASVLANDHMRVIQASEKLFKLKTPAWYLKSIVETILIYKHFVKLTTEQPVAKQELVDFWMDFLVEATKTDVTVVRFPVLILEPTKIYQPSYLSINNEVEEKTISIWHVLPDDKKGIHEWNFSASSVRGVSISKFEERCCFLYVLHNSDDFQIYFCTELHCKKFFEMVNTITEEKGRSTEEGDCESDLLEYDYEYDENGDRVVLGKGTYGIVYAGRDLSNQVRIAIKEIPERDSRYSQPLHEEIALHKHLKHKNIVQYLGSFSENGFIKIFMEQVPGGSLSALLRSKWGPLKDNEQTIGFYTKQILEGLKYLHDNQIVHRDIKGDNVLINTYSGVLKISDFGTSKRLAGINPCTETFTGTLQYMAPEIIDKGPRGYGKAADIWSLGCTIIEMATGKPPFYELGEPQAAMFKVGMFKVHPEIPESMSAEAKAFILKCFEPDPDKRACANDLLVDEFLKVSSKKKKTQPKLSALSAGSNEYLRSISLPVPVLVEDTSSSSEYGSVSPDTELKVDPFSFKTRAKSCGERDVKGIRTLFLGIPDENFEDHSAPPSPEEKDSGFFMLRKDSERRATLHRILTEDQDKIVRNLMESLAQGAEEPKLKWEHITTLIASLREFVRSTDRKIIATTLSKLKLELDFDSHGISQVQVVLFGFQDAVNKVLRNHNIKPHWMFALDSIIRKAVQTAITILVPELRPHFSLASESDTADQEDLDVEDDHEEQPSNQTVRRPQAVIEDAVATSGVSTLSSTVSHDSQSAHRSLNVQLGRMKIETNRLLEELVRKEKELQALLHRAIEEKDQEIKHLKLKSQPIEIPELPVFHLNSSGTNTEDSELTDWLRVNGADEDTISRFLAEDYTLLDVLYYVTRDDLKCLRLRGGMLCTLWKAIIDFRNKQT

[8] = target: T2, Scaffold protein ILK (Homo sapiens) (UniProt Q13418); assay: Selectivity interaction (ActivX KiNativ screen (ex vivo kinase selectivity in human PBMCs)) EUB0001619a ILK; format: cell-based; conditions: PBMC, at 1 µM
T2 sequence (whole entry): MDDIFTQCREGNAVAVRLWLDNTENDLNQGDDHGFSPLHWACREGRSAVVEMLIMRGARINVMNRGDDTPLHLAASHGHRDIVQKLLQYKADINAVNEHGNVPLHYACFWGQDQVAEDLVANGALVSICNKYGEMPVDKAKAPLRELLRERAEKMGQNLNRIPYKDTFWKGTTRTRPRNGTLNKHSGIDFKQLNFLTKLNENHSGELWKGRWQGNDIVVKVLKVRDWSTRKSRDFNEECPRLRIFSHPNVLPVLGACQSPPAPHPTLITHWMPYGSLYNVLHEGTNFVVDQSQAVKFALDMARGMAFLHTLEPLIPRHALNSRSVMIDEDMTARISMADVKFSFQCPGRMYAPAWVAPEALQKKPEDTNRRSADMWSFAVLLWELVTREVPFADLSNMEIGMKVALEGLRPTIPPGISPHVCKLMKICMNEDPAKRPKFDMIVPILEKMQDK

[9] = target: Serine/threonine-protein kinase PAK 4 (Homo sapiens, UniProt O96013); assay: Selectivity interaction (KinomeScan (DiscoverX)) EUB0000607a PAK4; conditions: at 10 µM
[10] = target: Cyclin-dependent kinase 7 (Homo sapiens, UniProt P50613); assay: Selectivity interaction (ActivX KiNativ screen (kinase selectivity in THP-1 cell lysates)) EUB0000639a CDK7; format: subcellular; conditions: lysate, at 5 µM
[11] = target: T3, Serine/threonine-protein kinase NLK (Homo sapiens) (UniProt Q9UBE8); assay: Selectivity interaction (KinomeScan (DiscoverX)) EUB0000092b NLK; conditions: at 10 µM
T3 sequence (whole entry): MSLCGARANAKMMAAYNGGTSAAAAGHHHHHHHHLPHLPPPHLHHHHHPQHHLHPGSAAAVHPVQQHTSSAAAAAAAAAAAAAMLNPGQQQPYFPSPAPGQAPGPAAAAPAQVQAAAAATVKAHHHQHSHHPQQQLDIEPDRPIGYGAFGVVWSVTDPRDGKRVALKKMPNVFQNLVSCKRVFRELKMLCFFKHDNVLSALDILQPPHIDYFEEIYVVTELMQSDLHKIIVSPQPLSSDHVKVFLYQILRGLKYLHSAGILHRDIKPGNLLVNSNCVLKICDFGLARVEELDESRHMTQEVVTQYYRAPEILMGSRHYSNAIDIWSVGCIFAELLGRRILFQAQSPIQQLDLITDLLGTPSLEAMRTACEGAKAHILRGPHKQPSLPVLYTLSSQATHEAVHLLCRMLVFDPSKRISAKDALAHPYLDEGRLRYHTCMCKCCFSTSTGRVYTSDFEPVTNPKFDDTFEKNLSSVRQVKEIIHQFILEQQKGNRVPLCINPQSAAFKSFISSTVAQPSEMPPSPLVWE

Sequence of Tyrosine-protein kinase JAK2 (O60674 whole entry): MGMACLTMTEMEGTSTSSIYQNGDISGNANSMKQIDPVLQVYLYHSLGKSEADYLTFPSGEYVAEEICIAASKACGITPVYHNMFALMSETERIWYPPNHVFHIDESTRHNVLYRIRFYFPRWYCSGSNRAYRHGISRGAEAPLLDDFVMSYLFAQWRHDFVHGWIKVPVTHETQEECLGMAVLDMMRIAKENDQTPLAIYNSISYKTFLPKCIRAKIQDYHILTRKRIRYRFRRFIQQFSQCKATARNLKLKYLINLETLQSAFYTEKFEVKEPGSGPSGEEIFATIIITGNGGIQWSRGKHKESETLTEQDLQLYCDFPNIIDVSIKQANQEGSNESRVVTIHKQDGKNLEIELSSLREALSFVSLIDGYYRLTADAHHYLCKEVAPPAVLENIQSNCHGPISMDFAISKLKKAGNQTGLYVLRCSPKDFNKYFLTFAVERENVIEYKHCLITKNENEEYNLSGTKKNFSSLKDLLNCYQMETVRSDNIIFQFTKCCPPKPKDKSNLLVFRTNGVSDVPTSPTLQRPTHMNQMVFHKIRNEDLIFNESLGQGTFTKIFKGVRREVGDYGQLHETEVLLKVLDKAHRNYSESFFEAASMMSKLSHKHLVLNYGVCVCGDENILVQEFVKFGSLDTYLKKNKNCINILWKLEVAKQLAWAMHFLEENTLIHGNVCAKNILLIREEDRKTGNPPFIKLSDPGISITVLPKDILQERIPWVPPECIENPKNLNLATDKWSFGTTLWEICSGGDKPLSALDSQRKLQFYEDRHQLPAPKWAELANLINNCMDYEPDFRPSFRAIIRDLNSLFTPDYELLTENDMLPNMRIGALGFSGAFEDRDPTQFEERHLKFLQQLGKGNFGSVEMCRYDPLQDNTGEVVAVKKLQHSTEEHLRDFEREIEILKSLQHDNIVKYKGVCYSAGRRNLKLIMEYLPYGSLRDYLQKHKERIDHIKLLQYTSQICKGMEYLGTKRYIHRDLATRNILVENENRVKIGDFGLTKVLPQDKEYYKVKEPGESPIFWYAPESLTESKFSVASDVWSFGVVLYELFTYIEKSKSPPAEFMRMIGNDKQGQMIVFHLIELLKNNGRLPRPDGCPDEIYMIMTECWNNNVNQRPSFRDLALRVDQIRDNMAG
Sequence of Transcription intermediary factor 1-beta (Homo sapiens) (Q13263 whole entry): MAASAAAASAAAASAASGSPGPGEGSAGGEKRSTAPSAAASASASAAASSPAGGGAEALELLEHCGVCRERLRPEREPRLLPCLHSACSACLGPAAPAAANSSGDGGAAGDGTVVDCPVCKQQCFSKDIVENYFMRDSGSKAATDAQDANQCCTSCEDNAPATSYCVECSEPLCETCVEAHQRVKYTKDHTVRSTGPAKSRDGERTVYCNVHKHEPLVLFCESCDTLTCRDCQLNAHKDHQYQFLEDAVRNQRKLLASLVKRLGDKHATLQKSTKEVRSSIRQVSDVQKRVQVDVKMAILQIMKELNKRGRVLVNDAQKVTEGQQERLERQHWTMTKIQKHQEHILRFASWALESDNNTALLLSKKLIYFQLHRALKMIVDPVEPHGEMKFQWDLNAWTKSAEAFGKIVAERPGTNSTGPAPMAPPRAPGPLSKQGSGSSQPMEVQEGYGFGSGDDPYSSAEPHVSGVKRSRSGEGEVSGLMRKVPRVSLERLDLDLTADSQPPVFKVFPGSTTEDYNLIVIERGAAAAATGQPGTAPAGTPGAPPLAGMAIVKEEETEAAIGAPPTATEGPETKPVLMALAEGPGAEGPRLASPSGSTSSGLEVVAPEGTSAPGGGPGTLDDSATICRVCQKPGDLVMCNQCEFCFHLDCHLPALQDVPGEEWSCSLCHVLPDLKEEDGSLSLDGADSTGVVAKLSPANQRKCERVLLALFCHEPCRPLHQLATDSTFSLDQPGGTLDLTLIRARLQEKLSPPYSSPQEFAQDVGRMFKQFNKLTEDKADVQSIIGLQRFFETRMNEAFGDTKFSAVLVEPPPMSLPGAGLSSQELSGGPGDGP
Sequence of MAP/microtubule affinity-regulating kinase 3 (Homo sapiens) (P27448 whole entry, looked up): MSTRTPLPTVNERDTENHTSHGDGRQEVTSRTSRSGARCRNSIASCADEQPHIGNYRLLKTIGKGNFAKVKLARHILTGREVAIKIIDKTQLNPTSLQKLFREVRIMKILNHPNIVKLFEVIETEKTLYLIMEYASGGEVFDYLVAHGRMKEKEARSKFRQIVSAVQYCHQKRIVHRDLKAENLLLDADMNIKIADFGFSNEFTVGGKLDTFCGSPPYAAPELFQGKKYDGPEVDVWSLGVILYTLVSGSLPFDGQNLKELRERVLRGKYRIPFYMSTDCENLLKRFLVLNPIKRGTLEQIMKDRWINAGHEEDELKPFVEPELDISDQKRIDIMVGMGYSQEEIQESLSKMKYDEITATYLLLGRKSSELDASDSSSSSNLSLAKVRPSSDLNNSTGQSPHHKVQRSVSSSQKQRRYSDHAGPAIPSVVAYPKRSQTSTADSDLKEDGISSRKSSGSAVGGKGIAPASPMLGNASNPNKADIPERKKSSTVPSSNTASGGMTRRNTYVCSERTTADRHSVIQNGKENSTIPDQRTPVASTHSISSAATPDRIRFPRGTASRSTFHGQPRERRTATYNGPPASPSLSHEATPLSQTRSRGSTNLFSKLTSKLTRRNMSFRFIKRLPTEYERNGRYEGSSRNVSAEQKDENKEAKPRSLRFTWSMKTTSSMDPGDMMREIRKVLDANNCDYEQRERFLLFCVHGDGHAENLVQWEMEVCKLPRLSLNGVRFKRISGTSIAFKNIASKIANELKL
Sequence of Serine/threonine-protein kinase PAK 4 (O96013 whole entry, looked up): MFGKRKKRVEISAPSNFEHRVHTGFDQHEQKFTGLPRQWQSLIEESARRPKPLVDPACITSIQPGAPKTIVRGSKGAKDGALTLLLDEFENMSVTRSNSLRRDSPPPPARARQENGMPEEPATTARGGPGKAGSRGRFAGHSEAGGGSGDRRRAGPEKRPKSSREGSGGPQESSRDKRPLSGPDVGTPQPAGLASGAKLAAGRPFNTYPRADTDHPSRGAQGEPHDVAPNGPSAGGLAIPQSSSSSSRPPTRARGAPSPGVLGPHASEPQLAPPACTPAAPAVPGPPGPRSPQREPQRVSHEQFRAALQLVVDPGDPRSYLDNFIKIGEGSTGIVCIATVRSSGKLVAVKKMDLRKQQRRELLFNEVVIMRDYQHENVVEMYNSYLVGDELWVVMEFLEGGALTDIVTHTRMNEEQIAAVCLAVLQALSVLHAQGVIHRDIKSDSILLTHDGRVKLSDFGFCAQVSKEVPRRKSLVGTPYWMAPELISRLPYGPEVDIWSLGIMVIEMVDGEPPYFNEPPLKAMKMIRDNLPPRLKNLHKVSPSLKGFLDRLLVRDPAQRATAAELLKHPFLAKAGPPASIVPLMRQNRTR
Sequence of Proto-oncogene tyrosine-protein kinase receptor Ret (Homo sapiens), P07949 [M918T] (P07949 whole entry M918T): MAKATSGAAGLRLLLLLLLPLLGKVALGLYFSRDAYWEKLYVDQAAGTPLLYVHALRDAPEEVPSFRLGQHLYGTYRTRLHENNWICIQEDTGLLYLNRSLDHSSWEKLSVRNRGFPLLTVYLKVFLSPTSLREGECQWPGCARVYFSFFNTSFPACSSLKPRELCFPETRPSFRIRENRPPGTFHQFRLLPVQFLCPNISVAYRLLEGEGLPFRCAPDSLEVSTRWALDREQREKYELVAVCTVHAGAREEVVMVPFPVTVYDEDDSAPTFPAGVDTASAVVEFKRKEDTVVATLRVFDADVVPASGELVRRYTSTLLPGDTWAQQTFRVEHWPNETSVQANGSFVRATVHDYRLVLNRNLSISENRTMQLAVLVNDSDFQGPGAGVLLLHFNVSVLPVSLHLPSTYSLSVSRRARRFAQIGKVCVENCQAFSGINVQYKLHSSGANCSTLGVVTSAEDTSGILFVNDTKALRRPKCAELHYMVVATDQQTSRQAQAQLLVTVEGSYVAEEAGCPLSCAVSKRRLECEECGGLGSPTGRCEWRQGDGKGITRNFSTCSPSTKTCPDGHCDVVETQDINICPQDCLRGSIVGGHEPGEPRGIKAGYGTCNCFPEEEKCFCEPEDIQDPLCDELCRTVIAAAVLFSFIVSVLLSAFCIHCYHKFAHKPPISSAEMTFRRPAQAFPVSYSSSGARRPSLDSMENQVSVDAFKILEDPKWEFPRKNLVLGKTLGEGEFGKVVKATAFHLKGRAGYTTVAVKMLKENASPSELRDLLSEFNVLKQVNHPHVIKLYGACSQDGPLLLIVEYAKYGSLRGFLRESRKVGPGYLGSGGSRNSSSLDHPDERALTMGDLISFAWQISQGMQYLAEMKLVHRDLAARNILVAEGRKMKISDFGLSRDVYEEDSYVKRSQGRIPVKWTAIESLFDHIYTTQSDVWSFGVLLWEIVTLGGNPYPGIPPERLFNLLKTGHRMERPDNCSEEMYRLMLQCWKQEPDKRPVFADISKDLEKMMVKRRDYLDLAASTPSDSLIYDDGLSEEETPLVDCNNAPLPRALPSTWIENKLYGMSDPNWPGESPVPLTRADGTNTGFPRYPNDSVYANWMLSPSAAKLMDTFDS
Sequence of Cyclin-dependent kinase 7 (P50613 whole entry): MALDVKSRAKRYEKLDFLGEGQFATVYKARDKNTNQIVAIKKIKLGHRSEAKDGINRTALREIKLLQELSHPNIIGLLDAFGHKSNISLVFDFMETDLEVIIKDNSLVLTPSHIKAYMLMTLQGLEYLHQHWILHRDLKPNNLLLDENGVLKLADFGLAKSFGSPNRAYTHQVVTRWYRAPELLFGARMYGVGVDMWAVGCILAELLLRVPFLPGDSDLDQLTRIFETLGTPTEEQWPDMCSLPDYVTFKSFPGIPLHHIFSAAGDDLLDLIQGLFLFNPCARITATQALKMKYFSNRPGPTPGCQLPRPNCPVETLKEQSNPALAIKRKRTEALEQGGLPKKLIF

## COCC(=O)NC/C=C/c1ccc2ncnc(Nc3ccc(Oc4ccc(C)nc4)c(C)c3)c2c1 [CP-724714]
[1]
  % of control: 100%

## Cn1cc(-n2cnc3c(NCc4nc5cc(Cl)c(Cl)cc5[nH]4)nc(N4CCOCC4)nc32)cn1
[2]
  % of control: 18.1%

## Cc1cc(CN)cc(C)c1-c1ncn(C)c1-c1cncn1C
[3]
  dTM: -1.65 K

## Cc1cc([C@@H](C)Nc2ccccc2C(=O)O)c2nc(N3CCOCC3)cc(=O)n2c1 [AZD-6482]
[4]
  % of control: 100%

## COc1cc(Nc2nc(C)cc(-c3cnn4nc(OC)ccc34)n2)cc(C(F)(F)F)c1
[5]
  % of control: 59%
[6]
  % of control: 91%

## Cc1ccc(-c2ccc3c(ccc4sc5c(c43)NC[C@@H](C)NC5=O)n2)cn1
[7]
  % of inhibition: 90%

## N#Cc1cccc(-c2c[nH]c3ncnc(N4CCOCC4)c23)c1
[8]
  % of inhibition: -12%

## CNC(=O)Nc1ccc(-c2nc(N3CC4CCC(C3)O4)c3cnn(C4CCC5(CC4)OCCO5)c3n2)cc1
[9]
  % of control: 100%

## CC[C@@H]1[C@H](F)C(=O)N[C@@H]1COc1nccc2cc(C(N)=O)c(OC)cc12 [ZIMLOVISERTIB]
[10]
  % of inhibition: 44.8%

## CCC(=O)N1CCN(c2ccc(-n3c(=O)ccc4cnc5ccc(-c6cnc7ccccc7c6)cc5c43)cc2C(F)(F)F)CC1
[11]
  % of control: 25%
